One series relates to pentobarbital anesthesia. The experiment in a line: Prolongation of pentobarbital anesthesia (Test Example 3). The following applies: for AD (oral dose which prolonged the pentobarbital-induced anesthesia by 15%, AD15): 1 hr before pentobarbital 30 mg/kg s.c. In kind it is in vivo, guinea pig (male Hartley). An excerpt: Sedation is the side effect with the highest incidence in histamine (H1)-blockers and anti-allergic drugs with an H1 blocking effect (Douglas, W. W. (1980) The Pharmacological Basis of Therapeutis, A. Goodman Gilman, L. S. Goodman, A. Gilman (eds), Macmillian, New York) and therefore anti-allergic drugs which overcome this disadvantage are needed. We investigated the effects of test compounds on pentobarbital anesthesia as a method for measuring incidence of sedation in animals.
Prolongation effects on anesthesia are usually investigated with ethanol or thiopental (in mice and rats). However, we investigated it with pentobarbital in guinea pigs because our data with pentobarbital corresponded well with the clinical data, that is, the incidence of sedation of other anti-allergic drugs in clinical use.
Sodium Pentobarbital (30 mg/kg) was subcutaneously injected into the backs of male Hartley guinea pigs weighing approximately 400 g, and the duration of postural reflex abolition was then measured.
Test compounds were administered orally 1 hr before the pentobarbital injection. The prolongation rate obtained with the test compound was calculated by comparison to the control (the duration of pentobarbital anesthesia in animals untreated with the test compounds). In addition, the AD15 value (the oral dose which prolonged the pentobarbital-induced anesthesia by 15%) was determined, and the results are shown in the table.

Series [1] has as its system Passive Cutaneous Anaphylaxis (PCA). The experiment in a line: Inhibitory effect on passive cutaneous anaphylaxis (PCA) in rats (Test Example 1"). Format: in vivo, rat (male SD). The following applies: Rattus norvegicus, po, read-out: Inhibitory rate; for inhibition at 0.05 mg/kg: 0.05 mg/kg (Table 3"); for inhibition at 0.2 mg/kg: 0.2 mg/kg (Table 3"); for inhibition at 3.1 mg/kg: 3.1 mg/kg (Table 3"). On the procedure: Male SD rats (5 weeks old) were used as the test animals in groups, each containing 4 animals. The rats were sensitized by intradermal injection of 0.05 ml of the diluted antiserum solution in the dorsal position. […] 60 minutes later they were injected in the caudal vein with 5 ml/kg body weight of physiological saline containing 0.4% w/v of egg albumin and 1.0% w/v of Evans Blue.
(§1) The inhibitory rate was calculated by the following equation.
(§2) Inhibitory rate (%)=(1-B/A)×100
(§3) A: amount of exuded dye in the control group
(§4) B: amount of exuded dye in the test group.

Series [2] deals with Antigen-induced Bronchoconstriction. In words: Effect on antigen-induced bronchoconstriction in sensitized guinea pigs (Test Example 2"). The following applies: Cavia porcellus, po, read-out: Inhibitory rate; for inhibition at 0.025 mg/kg: 0.025 mg/kg (Table 4"); for inhibition at 0.1 mg/kg: 0.1 mg/kg (Table 4"). Format: in vivo, guinea pig (male Hartley). The protocol: (§5) The test animals used were male guinea pigs of the Hartley strain (weighing about 400 to 500 g). These animals were sensitized according to Morris' method [H. R. Morris; Br. J. Pharmac., 67, 179-184 (1979)]. The guinea pigs were injected twice subcutaneously and intraperitoneally, each time with 25 mg of egg albumin (grade 5, Sigma) at weekly intervals. 7 days after the second of these weekly injections, the animals were fasted for one day and then exposed to an aerosol of egg albumin (10 mg/ml). All of the animals so exposed responded with convulsions, indicating respiratory distress due to airway constriction, within 6 minutes.
60 minutes before the egg albumin challenge, one of the test compounds shown in the following Table 4" was administered orally to each of the animals.

Another series deals with eosinophil accumulation. The experiment in a line: Inhibitory effect on antigen induced eosinophil accumulation (Test Example 4).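 Also: oral dose 0.1 mg/kg.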 In kind it is in vivo, guinea pig (male Hartley). The following applies: Cavia porcellus, Eosinophil, po, 1 hr before antigen challenge, BALF 24 hr after. On the procedure:
Male Hartley guinea pigs weighing approximately 400 g were sensitized with ovalbumin by the method described by Engineer et al. (Engineer, D. M. et al., J. Pharmacol., 62, 61-66 (1978)), and the number of eosinophils infiltrating into the bronchoalveolar space due to antigen challenge was examined.
Briefly, the animals were exposed to the antigen (ovalbumin) for 6 min. At 24 hr. after antigen challenge, the guinea pigs were anesthetized with pentobarbital (30 mg/kg, i.p.). The trachea was cannulated by a disposable intravenous catheter, and the airway lumen (especially in the right posterior lobe) was washed with 0.9% saline (10 ml/kg) kept at 37° C. The bronchoalveolar lavage fluid (BALF) from each animal was centrifuged (150 g for 10 min at 4° C.). After removing the supernatant, the cell pellet was resuspended in HBSS (Hank's balanced solution) and a total cell count was performed using a standard hemocytometer. Differential cell counts were done on smears fixed in methanol and stained with Wright-Giemsa solution, and by light microscopy under oil immersion (×1000). The proportion of eosinophil population was expressed as a percentage of total cells, and this ratio together with the total cell count was used to calculate the total number of eosinophils. The percent inhibition of the test compounds which was administered 1 hr before antigen challenge, was calculated as follows:
Percent inhibition=[1-(C-A)/(B-A)]×100
A: negative control: mean value of cell counts in BALF from the animals with inhaled saline
B: positive control: mean value of cell counts in BALF from the animals 24 h after antigen challenge
C: cell counts of BALF for the animals pretreated with a test compound 24 h after antigen challenge

The next series has as its system eosinophil chemotaxis. The experiment in a line: Inhibitory effect of eosinophil chemotaxis to zymosan-activated serum (Test Example 4). Format: cell-based, guinea pig. The following applies: Cavia porcellus, Eosinophil, 0.1 μg/ml; ZAS. An excerpt: Eosinophils were harvested from the peritoneal cavity of polymyxin B-treated guinea pigs (body weight, approx. 400 g) according to the method described by Pincus (Pincus, S. H. et al.: Blood, 52, 127-134 (1978)). The eosinophils were separated and purified by Ficoll-paque (Pharmacia) density gradient centrifugation. Then, the eosinophil chemotaxis to zymosan-activated serum (ZAS) was investigated by a modification of the Boyden micropore filter technique (Gosset, P. et al.: Clin. Exp. Immunol., 65, 654-663 (1986)). Briefly, the assay was carried out in a 48-well microchemotaxis assembly (Neuroprobe; Cabin John, Md., U.S.A.). Cell suspensions were adjusted to 2.5×10^5 /50 μl, and placed in the upper chamber separated from the chemoattractant (ZAS) solution in the lower chamber by a 3 μm pore size polycarbonate membrane filter (Nucleopore Co., Pleasanton, U.S.A.). The cells were incubated for 10 min at 37° C. with the test compounds, prior to their addition to the chemotaxis chamber. Migration was carried out at 37° C. in humidified air with 5% CO2 for 2 h. After the incubation, the migrated eosinophils in the lower Chamber were counted by a hemocytometer.
The percentage inhibition obtained with the test compound was calculated by comparison to the positive control (migration of non-treated cells in response to the ZAS), according to the formula:
Percent inhibition=[1-(A/B)]×100
A: (migration with a test compound)-(spontaneous migration)
B: (positive control migration)-(spontaneous migration)

In series [3] the test system is Passive Cutaneous Anaphylaxis (PCA). In words: Inhibitory effect on passive cutaneous anaphylaxis (PCA) in rats (Test Example 1). In kind it is in vivo, rat (male SD). The following applies: Rattus norvegicus, po, read-out: Inhibitory rate. The protocol:
Male SD rats (5 weeks old) were used as the test animals in groups, each containing 4 animals. The rats were sensitized by intradermal injection of 0.05 ml of the diluted antiserum solution in the dorsal position. 48 hours after this injection, a suspension of the test compound in an aqueous 0.5% w/v tragacanth solution was orally administered to the rats, fasted for one day, and 60 minutes later they were injected in the caudal vein with 5 ml/kg body weight of physiological saline containing 0.4% w/v egg albumin and 1.0% w/v Evans Blue.
as §1, §2, §3, §4

In series [4] the test system is Antigen-induced Bronchoconstriction. In words: Effect on antigen-induced bronchoconstriction in sensitized guinea pigs (Test Example 2). In kind it is in vivo, guinea pig (male Hartley). The following applies: Cavia porcellus, po, 60 min before challenge, read-out: Inhibitory rate. The protocol:
as §5, with “were” for “were injected twice”, “intraperitoneally injected twice,” for “intraperitoneally,”
60 minutes before the egg albumin challenge, one of the test compounds shown in the following Table 5 was administered orally to each of the animals.

Counter-ions that a name gives are not always drawn.

For the molecule `O=C(O)CCCN1CCN2c3ccccc3Cc3ccccc3C2C1` (racemic) [Example 22, 4-(1,2,3,4,10,14b-Hexahydrodibenzo[c,f]pyrazino[1,2-a]azepin-2-yl)butanoic acid], the “AD (oral dose which prolonged the pentobarbital-induced anesthesia by 15%, AD15)” value in the series on pentobarbital anesthesia (po, guinea pigs) came to 59 mg/kg.
On to `O=C(O)CCCN1CCN2c3ccccc3Cn3cccc3[C@H]2C1` [3"], for which, in series [1], the inhibition at 0.05 mg/kg was determined as 66% and the inhibition at 0.2 mg/kg came to 72%. Besides, in series [2], the inhibition at 0.025 mg/kg stood at 60% and the inhibition at 0.1 mg/kg was found to be 100%.
In the series with eosinophil accumulation, `O=C(O)CCCN1CCN2c3ccccc3Cc3ccccc3[C@@H]2C1` [22 HCl R-isomer] had an inhibition at 0.1 mg/kg of 59%. The molecule also gave an inhibition at 0.1 µg/mL in the series with eosinophil chemotaxis of 53%. For the same molecule, in series [1], the inhibition at 0.05 mg/kg was 55% and the inhibition at 0.2 mg/kg was determined as 67%. For the same molecule, in series [2], the inhibition at 0.025 mg/kg was 40% and the inhibition at 0.1 mg/kg was found to be 80%. In addition, the inhibition at 0.4 mg/kg in series [2] (0.4 mg/kg (Table 4")) stood at 100%.
For the molecule `O=C(O)CCCN1CCN2c3ccccc3Cc3ccccc3[C@@H]2C1` [22 R-isomer], the “prolongation of anesthesia side effect” value in the series with pentobarbital anesthesia (in words) is listed as “extremely low”. The “AD (oral dose which prolonged the pentobarbital-induced anesthesia by 15%, AD15)” value with pentobarbital anesthesia (po, guinea pigs) came to 123 mg/kg. Moreover, the “amount of R-isomer required as compared with the racemate for the same prolongation time” value with pentobarbital anesthesia (ratio to racemate, po, guinea pigs) is “about double”.
On to `O=C(O)CCCN1CCN2c3ccccc3Cc3ccccc3[C@H]2C1` [22 S-isomer], for which the “AD (oral dose which prolonged the pentobarbital-induced anesthesia by 15%, AD15)” value in the series on pentobarbital anesthesia (po, guinea pigs) came to 75 mg/kg.
As for `OCCOCCOCCN1CCN2c3ccccc3Cc3ccccc3C2C1` (stereo not shown) [Example 7], in series [3], the inhibition at 0.8 mg/kg was 50% and the inhibition at 3.1 mg/kg was determined as 57%. Besides, the inhibition at 12.5 mg/kg in series [3] (12.5 mg/kg) turned out to be 72%. Besides, the inhibition at 0.4 mg/kg in series [4] was 100%.
Take `OCCCN1CCN2c3ccccc3Cc3ccccc3C2C1` (stereo not shown) [Example 16, 3-(1,2,3,4,10,14b-Hexahydrodibenzo[c,f]pyrazino[1,2-a]azepin-2-yl)propanol]: in series [3], the inhibition at 0.8 mg/kg came to 48% and the inhibition at 3.1 mg/kg was determined as 63%. In series [4], the inhibition at 0.1 mg/kg was determined as 60% and the inhibition at 0.4 mg/kg was determined as 100%.
For the molecule `NC(=O)COCCN1CCN2c3ccccc3Cc3ccccc3C2C1` (stereo not shown) [Example 26, 2-(1,2,3,4,10,14b-Hexahydrodibenzo[c,f]pyrazino[1,2-a]azepin-2-yl)ethoxyacetamide], in series [3], the inhibition at 0.05 mg/kg was found to be 44% and the inhibition at 0.2 mg/kg amounted to 63%. In addition, the inhibition at 0.4 mg/kg in series [4] came out at 80%.
`O=C(O)COCCN1CCN2c3ccccc3Cc3ccccc3[C@H]2C1` [Example 59, (S)-2-(1,2,3,4,10,14b-Hexahydrodibenzo[c,f]pyrazino[1,2-a]azepin-2-yl)ethoxyacetic Acid]: in series [3], the inhibition at 0.05 mg/kg is 59% and the inhibition at 0.2 mg/kg came out at 74%. Also, the inhibition at 0.05 mg/kg in series [4] (0.05 mg/kg) stood at 60%.
For the molecule `O=C(O)COCCN1CCN2c3ccccc3Cc3ccccc3[C@@H]2C1` [Example 65, (R)-2-(1,2,3,4,10,14b-hexahydrodibenzo[c,f]pyrazino[1,2-a]azepin-2-yl)ethoxyacetic acid monohydrate], in series [3], the inhibition at 0.05 mg/kg is 45%. Moreover, the inhibition at 0.4 mg/kg in series [3] (0.4 mg/kg) is 58%. The inhibition at 0.1 mg/kg in series [4] was determined as 60%.
For `OCCN1CCN2c3ccccc3Cn3cccc3C2C1` (stereo not shown) [Prior art compound D, 2-(2-hydroxyethyl)-1,3,4,14b-tetrahydro-2H, 10H-pyrazino[1,2-a]pyrrolo[2,1-c][1,4]benzodiazepine, reference compound], the inhibition at 3.1 mg/kg in series [3] and in series [1] was 30% each time.
Regarding `NC(=O)CCN1CCN2c3ccccc3Cc3ccccc3C2C1` (stereo not shown) [Prior art compound F, 2-(2-carboxamidoethyl)-1,2,3,4,10,14b-hexahydrodibenzo[c,f]pyrazino[1,2-a]azepine, reference compound], the inhibition at 3.1 mg/kg in series [3] and in series [1] was 52% throughout.
